The structures appear in SMILES notation. Converted amounts (≈) assume the structure as drawn. The source made the active and inactive calls. The rule behind the calls is not given here.

Consider 28 molecules from ChEMBL document CHEMBL3112418, “Synthesis of novel 1,2,3-triazole tagged pyrazolo[3,4-b]pyridine derivatives and their cytotoxic activity” (Bioorg Med Chem Lett, 2014).

What all share (type): functional, cell-based
The test system of experiment [1] is B16-F10. Briefly: Cytotoxicity against mouse B16F10 cells assessed as reduction in cell viability at 100 ug/ml after 24 hrs by MTT assay. In general terms: Tetrazolium assays rely on reduction of a dye to a coloured formazan, in cell work by metabolically active cells.
Experiment [2] has as its system HL-60. In words: Cytotoxicity against human HL60 cells assessed as reduction in cell viability at 100 ug/ml after 24 hrs by MTT assay.
Experiment [3] concerns THP-1. In words: Cytotoxicity against human THP1 cells assessed as reduction in cell viability at 100 ug/ml after 24 hrs by MTT assay.
Experiment [4] in a line: Cytotoxicity against human U937 cells assessed as reduction in cell viability after 24 hrs by MTT assay. The conditions noted are these: U-937, 24 h.
The test system of experiment [5] is U-937. Briefly: Cytotoxicity against human U937 cells assessed as reduction in cell viability at 100 ug/ml after 24 hrs by MTT assay.
For experiment [6], the system named is THP-1. In words: Cytotoxicity against human THP1 cells assessed as reduction in cell viability after 24 hrs by MTT assay. The conditions noted are these: THP-1, 24 h.
The test system of experiment [7] is HL-60. In words: Cytotoxicity against human HL60 cells assessed as reduction in cell viability after 24 hrs by MTT assay. Particulars: HL-60, 24 h.
The test system of experiment [8] is B16-F10. Briefly: Cytotoxicity against mouse B16F10 cells assessed as reduction in cell viability after 24 hrs by MTT assay. Particulars: B16-F10, 24 h.

Turning to `Cc1c(Br)cccc1-n1cc(Cn2nc(N)c3c(C(F)(F)F)cc(-c4ccccc4)nc32)nn1`, the outcome in experiment [1], in experiment [2] and in experiment [3] was inactive. In addition, the half-maximal inhibitory concentration (IC50) – broadly, the concentration that inhibits the measured activity by half – in experiment [4] was determined as 97.2 µg/mL (≈ 184 µM).

For the molecule `Nc1nn(Cc2cn(-c3cccc(C(F)(F)F)c3)nn2)c2nc(-c3ccccc3)cc(C(F)(F)F)c12`, the outcome in experiment [1], in experiment [2], in experiment [5] and in experiment [3] was inactive.

Take `COc1ccc(-n2cc(Cn3nc(N)c4c(C(F)(F)F)cc(-c5ccccc5)nc43)nn2)cc1`: the result in experiment [1], in experiment [2], in experiment [5] and in experiment [3] was inactive.

Consider `Cc1ccc(-n2cc(Cn3nc(N)c4c(C(F)(F)F)cc(-c5ccccc5)nc43)nn2)cc1`, for which the outcome in experiment [1], in experiment [2] and in experiment [5] was inactive. For the same molecule, in experiment [6], the IC50 came out at 98.6 µg/mL (≈ 219 µM).

With `Nc1nn(Cc2cn(-c3ccc([N+](=O)[O-])cc3)nn2)c2nc(-c3ccccc3)cc(C(F)(F)F)c12`, the outcome in experiment [1], in experiment [2] and in experiment [3] was inactive. Further, the IC50 in experiment [4] was determined as 98.8 µg/mL (≈ 206 µM).

Consider `Nc1nn(Cc2cn(-c3ccc(F)cc3)nn2)c2nc(-c3ccccc3)cc(C(F)(F)F)c12`, for which the outcome in experiment [1], in experiment [2], in experiment [5] and in experiment [3] was inactive.

For the molecule `Nc1nn(Cc2cn(-c3ccc(F)c(Cl)c3)nn2)c2nc(-c3ccccc3)cc(C(F)(F)F)c12`, the outcome in experiment [1] and in experiment [3] was inactive. In addition, the half-inhibitory concentration (IC50) stood at 35 µg/mL (≈ 71.8 µM) in experiment [7] and 99.1 µg/mL (≈ 203 µM) in experiment [4].

`Nc1nn(Cc2cn(-c3cccc(Cl)c3)nn2)c2nc(-c3ccccc3)cc(C(F)(F)F)c12`: the result in experiment [1], in experiment [2] and in experiment [3] was inactive.

Consider `CCCCCCCCn1cc(Cn2nc(N)c3c(C(F)(F)F)cc(-c4ccccc4)nc32)nn1`, for which the result in experiment [1], in experiment [2], in experiment [5] and in experiment [3] was inactive.

As for `Nc1nn(Cc2cn(CC(=O)Nc3ccc(F)cc3Br)nn2)c2nc(-c3ccccc3)cc(C(F)(F)F)c12`, the 50% inhibitory concentration (IC50) in experiment [7] came to 63.6 µg/mL (≈ 108 µM); in experiment [8], 98 µg/mL (≈ 166 µM); in experiment [4], 98.3 µg/mL (≈ 167 µM); in experiment [6], 65.6 µg/mL (≈ 111 µM).

Regarding `Nc1nn(Cc2cn(CC(=O)Nc3cccc(F)c3)nn2)c2nc(-c3ccccc3)cc(C(F)(F)F)c12`, the result in experiment [1] was inactive. Besides, the IC50 in experiment [7] is 63.9 µg/mL (≈ 125 µM); in experiment [4], 43.5 µg/mL (≈ 85.3 µM); in experiment [6] it was 99.5 µg/mL (≈ 195 µM).

As to `COc1ccc(NC(=O)Cn2cc(Cn3nc(N)c4c(C(F)(F)F)cc(-c5ccccc5)nc43)nn2)cc1`, the result in experiment [1], in experiment [2] and in experiment [5] was inactive. In experiment [6], the IC50 worked out at 56.7 µg/mL (≈ 109 µM).

For the molecule `CCCCCCn1cc(Cn2nc(N)c3c(C(F)(F)F)cc(-c4ccccc4)nc32)nn1`, the result in experiment [1], in experiment [2], in experiment [5] and in experiment [3] was inactive.

As for `Nc1nn(Cc2cn(-c3ccc(O)c([N+](=O)[O-])c3)nn2)c2nc(-c3ccccc3)cc(C(F)(F)F)c12`, the IC50 in experiment [8] was found to be 42.3 µg/mL (≈ 85.1 µM); in experiment [4], 41.3 µg/mL (≈ 83.1 µM); in experiment [6] it was 36.2 µg/mL (≈ 73 µM).

As for `Nc1nn(Cc2cn(CC(=O)Nc3c(F)cccc3F)nn2)c2nc(-c3ccccc3)cc(C(F)(F)F)c12`, the IC50 in experiment [7] came to 32.8 µg/mL (≈ 62 µM); in experiment [8] it was 41.6 µg/mL (≈ 78.7 µM); in experiment [4] it was 30.6 µg/mL (≈ 58 µM); in experiment [6], 43.3 µg/mL (≈ 81.9 µM).

Regarding `Nc1nn(Cc2cn(CC(=O)Nc3ccccc3)nn2)c2nc(-c3ccccc3)cc(C(F)(F)F)c12`, the result in experiment [1] and in experiment [5] was inactive. The values for the 50% inhibitory concentration (IC50) in experiment [7] and in experiment [6] were 96.3 µg/mL (≈ 196 µM) and 54.6 µg/mL (≈ 111 µM), respectively.

`Nc1nn(Cc2cn(CC(=O)Nc3ccccc3Br)nn2)c2nc(-c3ccccc3)cc(C(F)(F)F)c12`: the result in experiment [1] and in experiment [5] was inactive. For the same molecule, the half-maximal inhibitory concentration (IC50) in experiment [7] was 27.2 µg/mL (≈ 47.6 µM); in experiment [6], 95.3 µg/mL (≈ 167 µM).

For the molecule `Nc1nn(Cc2cn(-c3ccccc3)nn2)c2nc(-c3ccccc3)cc(C(F)(F)F)c12`, the outcome in experiment [1], in experiment [2], in experiment [5] and in experiment [3] was inactive.

With `COc1cc([C@@H]2c3cc4c(cc3[C@@H](O[C@@H]3O[C@@H]5CO[C@@H](C)O[C@H]5[C@H](O)[C@H]3O)[C@H]3COC(=O)[C@H]23)OCO4)cc(OC)c1O` [ETOPOSIDE], the IC50 in experiment [7] turned out to be 2.13 µg/mL (≈ 3.62 µM); in experiment [8] it was 3.8 µg/mL (≈ 6.46 µM); in experiment [4], 6.7 µg/mL (≈ 11.4 µM); in experiment [6], 6.34 µg/mL (≈ 10.8 µM).

Regarding `Nc1nn(Cc2cn(CC(=O)NC3CCCCC3)nn2)c2nc(-c3ccccc3)cc(C(F)(F)F)c12`, the IC50 in experiment [7] is 42.9 µg/mL (≈ 86.2 µM); in experiment [8], 99.1 µg/mL (≈ 199 µM); in experiment [4] it was 89 µg/mL (≈ 179 µM); in experiment [6], 64.8 µg/mL (≈ 130 µM).

Turning to `CCCCn1cc(Cn2nc(N)c3c(C(F)(F)F)cc(-c4ccccc4)nc32)nn1`, the result in experiment [1] and in experiment [5] was inactive. Further, the half-inhibitory concentration (IC50) in experiment [7] turned out to be 36.7 µg/mL (≈ 88.4 µM); in experiment [6] it was 46.1 µg/mL (≈ 111 µM).

With `CCCCCCCCCCn1cc(Cn2nc(N)c3c(C(F)(F)F)cc(-c4ccccc4)nc32)nn1`, the IC50 was found to be 29.9 µg/mL (≈ 59.8 µM) in experiment [7], 84.9 µg/mL (≈ 170 µM) in experiment [8], 27.1 µg/mL (≈ 54.3 µM) in experiment [4] and 48.7 µg/mL (≈ 97.4 µM) in experiment [6].

As for `Nc1nn(Cc2cn(-c3ccc(Br)c(F)c3)nn2)c2nc(-c3ccccc3)cc(C(F)(F)F)c12`, the outcome in experiment [1], in experiment [2], in experiment [5] and in experiment [3] was inactive.

On to `Nc1nn(Cc2cn(CC(=O)Nc3ccc(F)cc3)nn2)c2nc(-c3ccccc3)cc(C(F)(F)F)c12`, for which the outcome in experiment [1] and in experiment [5] was inactive. The IC50 in experiment [7] amounted to 44.8 µg/mL (≈ 87.7 µM); in experiment [6], 49.5 µg/mL (≈ 97.1 µM).

Take `Nc1nn(Cc2cn(CC(=O)Nc3cccc(Cl)c3)nn2)c2nc(-c3ccccc3)cc(C(F)(F)F)c12`: the result in experiment [1], in experiment [2] and in experiment [5] was inactive. In addition, the IC50 in experiment [6] came to 37 µg/mL (≈ 70.3 µM).

`Cc1ccc(NC(=O)Cn2cc(Cn3nc(N)c4c(C(F)(F)F)cc(-c5ccccc5)nc43)nn2)cc1`: the outcome in experiment [1] and in experiment [2] was inactive. The half-maximal inhibitory concentration (IC50) in experiment [4] came out at 65.3 µg/mL (≈ 129 µM); in experiment [6], 41.5 µg/mL (≈ 81.9 µM).

`Nc1nn(Cc2cn(CCC(F)(F)C(F)(F)C(F)(F)C(F)(F)C(F)(F)C(F)(F)C(F)(F)C(F)(F)F)nn2)c2nc(-c3ccccc3)cc(C(F)(F)F)c12`: the outcome in experiment [1], in experiment [2], in experiment [5] and in experiment [3] was inactive.

For the molecule `Nc1nn(Cc2cn(CCC(F)(F)C(F)(F)C(F)(F)C(F)(F)C(F)(F)C(F)(F)F)nn2)c2nc(-c3ccccc3)cc(C(F)(F)F)c12`, the result in experiment [1] and in experiment [3] was inactive. Besides, the IC50 in experiment [7] turned out to be 97.6 µg/mL (≈ 138 µM); in experiment [4], 98.2 µg/mL (≈ 139 µM).
